The assay concerns CEM cells HIV-1 protection, formazan growth assay. In words: NCI AIDS Antiviral Assay. Particulars: for IC50: measured here: growth of uninfected CEM cells. In outline:
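Protection of CEM cells against HIV-1 was scored from cell growth (soluble formazan) across five concentrations, with parallel uninfected cells. Lack of protection may reflect toxicity.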

Structures are written as SMILES. Values joined by “and” are separate entries in the source; they are usually repeats but may differ in a detail not shown here. Equal entries are not always repeated. Active and inactive are the calls of the source.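 Rule for the calls: active = compounds giving half or more protection of infected cells from virus-caused growth loss, again on retest; inactive = the rest.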 Some results are limits rather than exact numbers.

The term EC50 denotes the concentration that produces a half-maximal response. As a reminder, the IC50 is the concentration at which inhibition is half-maximal. A high value points to lower potency. In the case of `O=C1OC(=O)C2CC3C(CC12)C1(Cl)C(Cl)=C(Cl)C3(Cl)C1(Cl)Cl` (configuration not stated), the EC50 was more than 200 µM and the IC50 came to 6.61 µM.
In the case of `CC1=Nc2ccc([N+](=O)[O-])cc2N=C(C)C1`, the EC50 is more than 200 µM; the IC50 is > 200 µM and 126 µM.
As for `CC(=O)C(=[N+]=[N-])C(=O)OCCOC(=O)C(=[N+]=[N-])C(C)=O`, the EC50 was more than 200 µM and the IC50 was more than 200 µM.
As for `O=C1N[C@@H]([C@H]2CC[C@H](Cl)CN2)C(=O)N[C@H]1[C@H]1CC[C@H](Cl)CN1`, the EC50 is more than 5.89 µM and the IC50 was found to be 0.0141 µM.
Turning to `CCN1CCCc2cc3c(C(F)(F)F)cc(=O)oc3cc21`, the EC50 was more than 17.4 µM and the IC50 is more than 17.4 µM.
For the compound `Cn1c(=O)cc(C=Nc2ccc(C(=O)O)cc2)c2ccccc21`, the EC50 is more than 200 µM and the IC50 worked out at 1.32 µM.
The like results for `Cn1c(=O)c(=O)n(C)c2cc(Cl)c(Cl)cc21` were, in that order, more than 200 µM and more than 200 µM.
The corresponding values for `CC1=C(C(=O)CC(=O)C(=O)Nc2ccc(Cl)cc2C)Sc2ccccc2N1` are more than 117 µM and more than 117 µM.
`C[C@H]1[C@H](C)CC[C@]2(C(=O)O)CCC3(COC(=O)/C=C/c4ccc(O)cc4)C(=CCC4[C@@]5(C)CC[C@H](O)C(C)(C)C5CC[C@]43C)[C@H]12` (some centres not stated): the EC50 was more than 11.5 µM and the IC50 stood at 5.37 µM.
The corresponding values for `CC1(O)C(=O)N(Cc2ccccc2)c2ccccc21` (configuration not stated) are more than 141 µM and more than 141 µM.
The like results for `c1ccc(C2C3=C(CCCC3)Nc3nc4cc5ccccc5cc4n32)cc1` (configuration not stated) were, in that order, more than 200 µM and more than 200 µM.
The like results for `C=CCN1C(N)=C(C#N)C(C#N)(C#N)C1CCC` (configuration not stated) were, in that order, more than 200 µM and 151 µM.
Turning to `CSc1nc(-c2ccc(C)cc2)c(C#N)c(=O)[nH]1`, the outcome was inactive.
As for `CCCSS[C@H]1NC(=O)[C@H]1NC(=O)COc1ccccc1`, the EC50 was more than 21.9 µM and the IC50 is more than 21.9 µM.
`O=C(O)N1CCc2c(sc3ccccc23)C1`: the EC50 was more than 95.5 µM and the IC50 was more than 95.5 µM.
On to `OC(c1ccccc1)C(F)(F)c1nc2ccccc2o1` (configuration not stated), for which the EC50 was more than 200 µM and the IC50 was more than 200 µM.
For `COc1cc(Nc2c3ccccc3nc3ccccc23)ccc1NS(C)(=O)=O`, the EC50 is more than 200 µM and the IC50 was 2.4 µM.
In the case of `Cc1nn(C(=O)c2c(O)cccc2Br)c(C)c1N=Nc1ccccc1`, the outcome was inactive.
In the case of `CCN(CC)c1c(C(=O)/C=C/c2ccccc2)c(-c2ccccc2)nn(C)c1=O`, the EC50 was more than 18.6 µM and the IC50 stood at 9.12 µM.
In the case of `COC(=O)C(=O)C(C(=O)C=C(C)C)C(=O)C(=O)Nc1cccc(C(C)=O)c1` (configuration not stated), the EC50 is more than 251 µM.
Take `C(=C/[PH+](c1ccccc1)c1ccccc1)/[PH+](c1ccccc1)c1ccccc1.C(=C/[PH+](c1ccccc1)c1ccccc1)/[PH+](c1ccccc1)c1ccccc1.C(=C/[PH+](c1ccccc1)c1ccccc1)/[PH+](c1ccccc1)c1ccccc1.[Pt]`: the EC50 was more than 5.25 µM and the IC50 was found to be 3.24 µM.
The corresponding values for `CCOC(=O)NC1C2CC(=O)OC(O2)C1OC(C)=O` (configuration not stated) are more than 912 µM and 39.8 µM.
As to `CCCCN=C1OCc2[nH][nH]c(=O)c21`, the EC50 was more than 1290 µM and the IC50 is more than 1290 µM.
Take `Cc1ncc([N+](=O)[O-])n1CCN(C)CCCCn1ccnc1[N+](=O)[O-]`: the EC50 is more than 200 µM and the IC50 was more than 200 µM.
As to `O=C(O)c1ccccc1NS(=O)(=O)c1ccc([N+](=O)[O-])cc1`, the result was inactive.
For the compound `CCOC(=O)C(c1c(O)c2ccccc2oc1=O)c1c(O)c2ccccc2oc1=O`, the EC50 is more than 617 µM and the IC50 turned out to be 64.6 µM.
`COc1cc2c3c(n(C)c(=O)c2cc1OC)-c1cc2c(cc1C3=O)OCO2`: the EC50 was more than 14.5 µM and the IC50 worked out at 0.891 µM.
Regarding `COc1ccc(Nc2ccc3c4c(cccc24)C(=O)N(c2ccc(OC)cc2)C3=O)cc1`, the EC50 is more than 200 µM and the IC50 amounted to 31.6 µM.
The like results for `CCN(CC)C(=O)c1ccc(C)c(N=NN(C)C)c1` were, in that order, more than 501 µM and 316 µM.
Regarding `COC1OC2=CCC3C(=O)NC(=O)C3C2[C@H](OCc2ccccc2)C1OCc1ccccc1` (some centres not stated), the outcome was inactive.
In the case of `O=C(Cn1ccnc1[N+](=O)[O-])N(CCO)CCO`, the EC50 was more than 977 µM and the IC50 is more than 977 µM.
For the compound `CC(=O)NNc1nc(C)c(C(/C=C/c2ccc(Cl)cc2)=N\NS(=O)(=O)c2ccc(C)cc2)s1`, the EC50 was more than 2.88 µM and the IC50 was more than 2.88 µM.
Turning to `CS(=O)(=O)OC1CCC2(C#N)CCC1C2=O` (configuration not stated), the EC50 was more than 1020 µM and the IC50 was more than 1020 µM.
On to `C/C(=N/NC(=S)Nc1ccccc1C)c1ccccn1`, for which the EC50 was more than 0.2 µM and the IC50 came to 0.0692 µM.
As to `O=C(CCCCCCCCc1ccc(O)cc1)c1c(O)cccc1O`, the result was inactive.
On to `Cc1cccc(N2C(c3ccccc3)c3ccc(C)cc3NS2=O)c1` (configuration not stated), for which the EC50 is more than 257 µM and the IC50 turned out to be 151 µM.
The like results for `CC1=NNC(=O)C1C1CC(c2c[nH]c3ccccc23)=NN/C1=N\N` (configuration not stated) were, in that order, more than 100 µM and more than 100 µM.
For the compound `COc1ccc2c(c1)CC[C@@H]1C2CC[C@]2(C)OC(=O)CCC12` (some centres not stated), the EC50 was more than 87.1 µM and the IC50 worked out at 12 µM.
Regarding `C=C1CC(Cn2cc(Br)c(=O)[nH]c2=O)(c2ccc(Br)cc2)OC1=O` (configuration not stated), the EC50 is more than 20 µM and the IC50 is 0.759 µM.
The like results for `Cc1cc(S(=O)(=O)O)c(NC(=O)C(=O)Cc2cc(=O)oc3cc(O)ccc23)cc1Cl` were, in that order, more than 79.4 µM and more than 79.4 µM.
The like results for `O=C(c1ccccc1)N1N=C(C(F)(F)F)CC1(O)C(F)(F)F` (configuration not stated) were, in that order, more than 200 µM and more than 200 µM.
Regarding `CCCCCCCCCCCC1OC[C@H]2O[C@@H](n3cc(C)c(=O)[nH]c3=O)C[C@H]2N1O` (some centres not stated), the EC50 is more than 200 µM and the IC50 was determined as 21.9 µM.
As to `CCC(=O)N1NC(=O)C(CC)(CC)C1=O`, the EC50 was more than 200 µM and the IC50 is more than 200 µM.
Turning to `CCOC(=O)c1sc2nc(SC)nc3c2c1N=CN3c1ccc(Br)cc1`, the result was inactive.
With `Cc1ccc(S(=O)(=O)Nc2nnc(S(N)(=O)=O)s2)cc1`, the EC50 is more than 200 µM and the IC50 was more than 200 µM.
Regarding `COc1cc2occ(-c3ccc(O)c(O)c3)c(=O)c2cc1O`, the EC50 was more than 200 µM and the IC50 turned out to be 26.3 µM.
On to `CC(=O)OC1CC2C(C)(C)CCC[C@]2(C=O)C2=C1C(O)=C(C(C)C)C(=O)C2=O` (some centres not stated), for which the result was inactive.
Turning to `Cc1c(C#N)c2nc(C(=O)c3ccc(Br)cc3)cc(-c3ccc(Br)cc3)n2c1C`, the EC50 was more than 50.1 µM and the IC50 is more than 50.1 µM.
Take `[N-]=[N+]=NC1C2CC3C4CC5CC3[C@H](C2)C(C5)C41` (some centres not stated): the EC50 is more than 81.3 µM and the IC50 is more than 81.3 µM.
As to `CC(NS(C)(=O)=O)c1ccccc1` (configuration not stated), the EC50 is more than 200 µM and the IC50 is more than 200 µM.
Take `O=C1CN2Cc3cc(N4CCOCC4)ccc3N=C2N1`: the EC50 was more than 257 µM and the IC50 came out at 40.7 µM.
The corresponding values for `COC(=O)c1ccccc1C1CN=NC12Cc1ccc(C)cc1C2=O` (configuration not stated) are more than 200 µM and 63.1 µM.
On to `N#Cc1c(Cl)nc2ccccc2c1N=[N+]=[N-]`, for which the EC50 is more than 200 µM and the IC50 came out at 0.912 µM.
The corresponding values for `CSc1nc(C#N)c(/N=C\N(C)C)n1C` are more than 200 µM and more than 200 µM.
The corresponding values for `CCOP(=O)(CN1CCNCCN(CP(=O)(OCC)OCC)CC1)OCC` are more than 100 µM and more than 100 µM.
The corresponding values for `CCCCOC(=O)N[C@H]1CCc2cc(OC)c(OC)c(OC)c2-c2ccc(SC)c(=O)cc21` are more than 0.2 µM and 0.00407 µM.
As to `C#Cc1cccc(N2C(=O)c3c(c(-c4ccccc4)c(-c4ccc(Cc5ccc(-c6c(-c7ccccc7)c7c(c(-c8ccccc8)c6-c6ccccc6)C(=O)N(c6cccc(C#C)c6)C7=O)cc5)cc4)c(-c4ccccc4)c3-c3ccccc3)C2=O)c1`, the EC50 was more than 23.4 µM and the IC50 is more than 23.4 µM.
Regarding `CN1C(=O)/C(=C2\SC(=O)N(CN3CCOCC3)C2=O)c2cc(Br)ccc21`, the EC50 was more than 200 µM and the 50% inhibitory concentration (IC50) was 26.3 µM.
The like results for `CN(CCCNc1ccc2ncn3c4ccccc4c(=O)c1c23)CCCN1C(=O)c2cccc3cc([N+](=O)[O-])cc(c23)C1=O` were, in that order, 0.01 µM and 0.0316 µM.
Take `CCOC(=O)C(Oc1ccc(OC)c2c1C(=O)CCC2)c1ccccc1` (configuration not stated): the outcome was inactive.
For `CC1=C(C2=C(C)C(=O)C(=O)c3cc(C)ccc32)c2ccc(C)cc2C(=O)C1=O`, the EC50 is more than 200 µM and the IC50 was determined as 0.0631 µM.
As to `C/C(=N\NC(=O)c1ccncc1)c1sc(-n2nc(-c3ccccc3)cc2-c2ccccc2)nc1C`, the EC50 is more than 11 µM and the IC50 is more than 11 µM.
Consider `COC(=O)C1=CC(=O)OC1(OO)c1ccccc1` (configuration not stated), for which the EC50 is more than 200 µM and the IC50 came to 45.7 µM.
The corresponding values for `Cc1cccc(NC(=S)NNC(=O)c2cc(-c3ccccc3)nc3ccccc23)c1` are more than 200 µM and 24 µM.
The corresponding values for `c1ccc(CSCCC(SCc2ccccc2)SCc2ccccc2)cc1` are more than 200 µM and more than 200 µM.
The like results for `CCCCCCCCOP(=O)(O)OP(=O)(O)OCC1OC(n2ccc(N)nc2=O)C(O)C1O` (configuration not stated) were, in that order, more than 200 µM and more than 200 µM.
In the case of `COc1c2cc(C(C)(C)C)cc1CSCc1cc(C(C)(C)C)cc(c1OC)CCCCC2`, the EC50 was more than 200 µM and the IC50 is more than 200 µM.
As to `CC(=O)c1c(O)c(C)c(O)c2c1OC1=CC(=O)C(C(C)=O)C(=O)C12C` (configuration not stated), the EC50 is more than 200 µM.
Regarding `Cc1cccc(/C=N/N=C(\N)NO)n1`, the EC50 is more than 692 µM and the IC50 amounted to 141 µM.
The like results for `CCCCC(/C=C\COC1CCCCO1)=C/C(=O)OCC` (configuration not stated) were, in that order, more than 126 µM and 77.6 µM.
On to `CCCCCCNC(=O)C1=C(C)NC(C)=C(C(=O)NCCCCCC)C1`, for which the outcome was inactive and the IC50 was determined as 89.1 µM.

The values above are taken from PubChem BioAssay AID179 (DTP/NCI, 2004).
